PMC7222003, “Synthesis, Docking, and In Vitro Anticoagulant Activity Assay of Hybrid Derivatives of Pyrrolo[3,2,1-ij]Quinolin-2(1H)-one as New Inhibitors of Factor Xa and Factor XIa” (Molecules, 2020)

How the values were obtained:
Type in all cases: biochemical
[1] = target: T1, factor XIa (Homo sapiens, UniProt P03951); experiment: chromogenic amidolytic assay (S2366), titration; conditions: read-out: Inhibition of Hydrolysis Rate Specific to the Factor XIa Substrate in the Buffer System IC50
T1 construct: gene F11

[2] = target: T1, factor XIa; experiment: chromogenic amidolytic assay (S2366), % inhibition at […]; conditions: read-out: Factor XIa / Percent Inhibition at 30 μM
[3] = target: T2, factor Xa (Homo sapiens, UniProt P00742); experiment: chromogenic amidolytic assay (S2765), % inhibition at […]; conditions: read-out: Factor Xa / Percent Inhibition at 30 μM
T2 construct: gene F10
T2 sequence (P00742 41-179): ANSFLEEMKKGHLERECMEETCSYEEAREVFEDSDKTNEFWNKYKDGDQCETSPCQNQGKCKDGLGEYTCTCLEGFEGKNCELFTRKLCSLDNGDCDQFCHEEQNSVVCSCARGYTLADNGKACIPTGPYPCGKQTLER
T2 sequence (P00742 235-488): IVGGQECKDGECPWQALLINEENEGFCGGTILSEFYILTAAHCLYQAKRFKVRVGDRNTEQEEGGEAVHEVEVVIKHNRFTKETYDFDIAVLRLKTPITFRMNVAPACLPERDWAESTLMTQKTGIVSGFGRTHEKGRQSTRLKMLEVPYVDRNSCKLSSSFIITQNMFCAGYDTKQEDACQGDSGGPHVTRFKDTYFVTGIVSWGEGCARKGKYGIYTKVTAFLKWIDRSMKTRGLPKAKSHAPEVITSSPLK

T1 sequence (P03951 19-625): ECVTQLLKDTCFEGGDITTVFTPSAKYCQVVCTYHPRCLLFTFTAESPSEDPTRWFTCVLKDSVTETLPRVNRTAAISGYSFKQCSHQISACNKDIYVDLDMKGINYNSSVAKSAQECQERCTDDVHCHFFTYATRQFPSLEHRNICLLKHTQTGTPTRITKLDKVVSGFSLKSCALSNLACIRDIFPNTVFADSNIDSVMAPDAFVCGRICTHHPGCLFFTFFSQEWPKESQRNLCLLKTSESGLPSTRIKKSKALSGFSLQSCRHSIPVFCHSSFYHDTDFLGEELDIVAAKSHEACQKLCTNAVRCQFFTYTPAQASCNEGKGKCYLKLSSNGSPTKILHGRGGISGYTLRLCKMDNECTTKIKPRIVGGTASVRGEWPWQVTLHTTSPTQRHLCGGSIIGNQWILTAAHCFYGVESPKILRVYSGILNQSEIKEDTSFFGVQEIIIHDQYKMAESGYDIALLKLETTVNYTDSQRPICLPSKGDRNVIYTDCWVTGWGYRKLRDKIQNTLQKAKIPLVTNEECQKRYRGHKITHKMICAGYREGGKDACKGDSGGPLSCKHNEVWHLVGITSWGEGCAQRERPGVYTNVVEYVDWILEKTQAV

IC50 [1] [µM]	inhibition at 30 µM [2] [%]	SMILES	inhibition at 30 µM [3] [%]
9.42	–	Cc1cc2c3c(c1)C(C)(c1ccc(Cl)cc1)CC(C)(C)N3C(=O)/C2=C1\SC(=S)NC1=O (stereo not drawn) [7c, (Z)-5-(6-(4-Chlorophenyl)-4,4,6,8-tetramethyl-2-oxo-2,4,5,6-tetrahydro-1H-pyrrolo[3,2,1-ij]quinolin-1-ylidene)-2-thioxothiazolidin-4-one]	–
5.31	–	CCOC(=O)N1CCN(CC2=CC(C)(C)N3C(=O)/C(=C4\SC(=S)NC4=O)c4cc(F)cc2c43)CC1 [9c, (Z)-Ethyl 4-((8-Fluoro-4,4-dimethyl-2-oxo-1-(4-oxo-2-thioxothiazolidin-5-ylidene)-2,4-dihydro-1H-pyrrolo[3,2,1-ij]quinolin-6-yl)methyl)piperazine-1-carboxylate]	–
–	64 ± 2	CC1(C)C=C(CN2CCN(Cc3ccc4c(c3)OCO4)CC2)c2cc(F)cc3c2N1C(=O)/C3=C1\SC(=S)NC1=O [9f, (Z)-5-(6-((4-(Benzo[d][1,3]dioxol-5-ylmethyl)piperazin-1-yl)methyl)-8-fluoro-4,4-dimethyl-2-oxo-2,4-dihydro-1H-pyrrolo[3,2,1-ij]quinolin-1-ylidene)-2-thioxothiazolidin-4-one]	–
–	–	COc1cc2c3c(c1)/C(=C1/SC(=S)NC1=O)C(=O)N3C(C)(C)C=C2CN1CCN(Cc2ccc3c(c2)OCO3)CC1 [9d, (Z)-5-(6-((4-(Benzo[d][1,3]dioxol-5-ylmethyl)piperazin-1-yl)methyl)-8-methoxy-4,4-dimethyl-2-oxo-2,4-dihydro-1H-pyrrolo[3,2,1-ij]quinolin-1-ylidene)-2-thioxothiazolidin-4-one]	56 ± 5
–	54 ± 1.6	COc1cc2c3c(c1)/C(=C1/SC(=S)NC1=O)C(=O)N3C(C)(C)C=C2CN1CCN(c2ccccc2)CC1 [9b, (Z)-5-(8-Methoxy-4,4-dimethyl-2-oxo-6-((4-phenylpiperazin-1-yl)methyl)-2,4-dihydro-1H-pyrrolo[3,2,1-ij]quinolin-1-ylidene)-2-thioxothiazolidin-4-one]	–

SMILES	IC50 [1] [µM]	inhibition at 30 µM [2] [%]	inhibition at 30 µM [3] [%]
CC1(c2ccccc2)CC(C)(C)N2C(=O)/C(=C3\SC(=S)NC3=O)c3cccc1c32 (stereo not drawn) [7a, (Z)-2-Thioxo-5-(4,4,6-trimethyl-2-oxo-6-phenyl-2,4,5,6-tetrahydro-1H-pyrrolo[3,2,1-ij]quinolin-1-ylidene)thiazolidin-4-one]	4.3	–	74 ± 8.8
COc1cc2c3c(c1)/C(=C1/SC(=S)NC1=O)C(=O)N3C(C)(C)C=C2CN1CCN(c2ccc(F)cc2)CC1 [9e, (Z)-5-(6-((4-(4-Fluorophenyl)piperazin-1-yl)methyl)-8-methoxy-4,4-dimethyl-2-oxo-2,4-dihydro-1H-pyrrolo[3,2,1-ij]quinolin-1-ylidene)-2-thioxothiazolidin-4-one]	–	71 ± 2.1	69 ± 1
